Laboratory results taken from US20050288238A1, “Benzocyclodecane derivatives with antitumor activity” (Pfizer Inc, priority 2004, published 2005).

Target: T1, Pig brain tubulin (Sus scrofa, UniProt P02550+P02554)
T1 construct: Pig brain tubulin was prepared by two cycles of assembly and disassembly; from tissue; host or cells: pig brain
Test: Microtubule assembly and disassembly assay
Type: biochemical
Settings: 0.5 mg/ml tubulin, 1 mM GTP, turbidity at 340 nm, reassembly after CaCl2 (5 mM)
Protocol: Microtubule assembly and disassembly assay.
Pig brain tubulin was prepared by two cycles of assembly and disassembly and it was stored in liquid nitrogen in Microtubule Assembly Buffer (MAB: 0.1 M MES, 2.5 mM EGTA, 0.5 mM MgSO4, 0.1 mM EDTA, 0.1 mM DTT pH 6.4). Assembly was monitored by the method of Gaskin et al. (Gaskin F, Cantor C R, Shelanski M L, 1974,: Turbidimetric studies of the in vitro assembly and disassembly of porcine neurotubules. J. Mol. Biol. 89: 737-758). The cuvette (1 cm path) containing 0.5 mg/ml tubulin and 1 mM GTP was shifted to 37° C. and continuous turbidity measurements were made at 340 nm on a spectrophotometer equipped with an automatic recorder and a thermostatically regulated sample chamber. After 30 min CaCl2 (5 mM) was added and disassembly was monitored for 10 min as decreased turbidity. Scalar doses of test compounds were monitored at regular intervals of 15 min.
(ED90) was calculated on this curve.

T1 sequence (P02550 whole entry): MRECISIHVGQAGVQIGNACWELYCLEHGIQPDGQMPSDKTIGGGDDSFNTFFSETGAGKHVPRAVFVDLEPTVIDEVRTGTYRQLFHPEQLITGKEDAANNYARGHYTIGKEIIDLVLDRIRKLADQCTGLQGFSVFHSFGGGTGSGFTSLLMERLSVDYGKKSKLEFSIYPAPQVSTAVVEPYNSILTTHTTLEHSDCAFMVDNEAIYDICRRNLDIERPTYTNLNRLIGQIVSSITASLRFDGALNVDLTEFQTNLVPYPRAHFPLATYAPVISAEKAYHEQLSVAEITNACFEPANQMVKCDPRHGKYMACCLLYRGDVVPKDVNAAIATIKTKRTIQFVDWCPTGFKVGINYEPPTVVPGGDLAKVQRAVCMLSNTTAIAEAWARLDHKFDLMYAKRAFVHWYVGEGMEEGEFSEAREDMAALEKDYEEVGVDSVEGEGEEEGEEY
T1 sequence (P02554 whole entry): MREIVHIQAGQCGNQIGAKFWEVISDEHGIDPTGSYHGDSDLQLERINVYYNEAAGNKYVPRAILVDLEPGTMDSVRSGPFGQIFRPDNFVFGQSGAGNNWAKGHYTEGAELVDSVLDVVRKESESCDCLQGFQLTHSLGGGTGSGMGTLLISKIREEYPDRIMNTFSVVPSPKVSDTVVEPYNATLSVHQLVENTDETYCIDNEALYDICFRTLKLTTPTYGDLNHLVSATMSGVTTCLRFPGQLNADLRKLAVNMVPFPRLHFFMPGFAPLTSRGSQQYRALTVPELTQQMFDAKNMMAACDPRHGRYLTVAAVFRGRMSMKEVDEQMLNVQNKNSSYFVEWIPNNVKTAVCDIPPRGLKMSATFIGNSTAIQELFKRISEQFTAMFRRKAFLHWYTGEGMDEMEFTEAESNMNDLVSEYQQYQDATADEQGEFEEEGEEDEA

In the case of `CC(=O)OC1C/C=C\CC(OC(=O)/C=C/c2cn(C)cn2)Cc2ccccc2C1` (stereo not shown) [I^v a, 11-(Acetyloxy)-5,6,7,10,11,12-hexahydrobenzo[a][10]annulen-6-yl (2E)-3-(1-methyl-1H-imidazol-4-yl)prop-2-enoate], the “ED90 (dose effecting tubulin assembly by 90% at 37° C.)” value is reported as 10 µM.
